US20220372067A1, “3.ALPHA.-HYDROXY-17.BETA.-AMIDE NEUROACTIVE STEROIDS AND COMPOSITIONS THEREOF” (SAGE THERAPEUTICS, INC., priority 2018, published 2022)

Biological target: GABAA receptor (TBPS binding site), rat brain cortical membranes
Assay: [35S]-TBPS binding assay, rat brain cortical membranes in the presence of 5 mM GABA
Conditions: inhibition of 3 nM [35S]-TBPS binding
Procedure: [^35S]-t-Butylbicyclophosphorothionate (TBPS) binding assays using rat brain cortical membranes in the presence of 5 mM GABA has been described (Gee et al, J. Pharmacol. Exp. Ther. 1987, 241, 346-353; Hawkinson et al, Mol. Pharmacol. 1994, 46, 977-985; Lewin, A. H et al., Mol. Pharmacol. 1989, 35, 189-194).
Briefly, cortices are rapidly removed following decapitation of carbon dioxide-anesthetized Sprague-Dawley rats (200-250 g). The cortices are homogenized in 10 volumes of ice-cold 0.32 M sucrose using a glass/teflon homogenizer and centrifuged at 1500×g for 10 min at 4° C. The resultant supernatants are centrifuged at 10,000×g for 20 min at 4° C. to obtain the P2 pellets. The P2 pellets are resuspended in 200 mM NaCl/50 mM Na—K phosphate pH 7.4 buffer and centrifuged at 10,000×g for 10 min at 4° C. This washing procedure is repeated twice and the pellets are resuspended in 10 volumes of buffer. Aliquots ([…]) of the membrane suspensions are incubated with 3 nM [^35S]-TBPS and […] aliquots of test drug dissolved in dimethyl sulfoxide (DMSO) (final 0.5%) in the presence of 5 mM GABA. The incubation is brought to a final volume of 1.0 mL with buffer. Nonspecific binding is determined in the presence of […] and ranged from 15 to 25%. Following a 90 min incubation at room temp, the assays are terminated by filtration through glass fiber filters (Schleicher and Schuell No. 32) using a cell harvester (Brandel) and rinsed three times with ice-cold buffer. Filter bound radioactivity is measured by liquid scintillation spectrometry. Non-linear curve fitting of the overall data for each drug averaged for each concentration is done using Prism (GraphPad). […] The concentration of test compound producing 50% inhibition (IC50) of specific binding and the maximal extent of inhibition (Imax) are determined for the individual experiments with the same model used for the overall data and then the means±SEM.s of the individual experiments are calculated.
Various compounds are or can be screened to determine their potential as modulators of [^35S]-TBPS binding in vitro. These assays are or can be performed in accordance with the above

| Structure (SMILES) | IC50 [nM] |
| --- | --- |
| CCOC[C@@]1(O)CC[C@H]2[C@H](CC[C@@H]3[C@@H]2CC[C@]2(C)[C@@H](C(=O)Nc4cccc(C)n4)CC[C@@H]32)C1 [Example 4, (3R,5R,8R,9R,10S,13S,14S,17S)-3-(ethoxymethyl)-3-hydroxy-13-methyl-N-(6-methylpyridin-2-yl)hexadecahydro-1H-cyclopenta[a]phenanthrene-17-carboxamide] | < 100 |
| COC[C@@]1(O)CC[C@H]2[C@H](CC[C@@H]3[C@@H]2CC[C@]2(C)[C@@H](C(=O)Nc4ccc(F)cn4)CC[C@@H]32)C1 [Example 10, (3R,5R,8R,9R,10S,13S,14S,17S)-N-(5-fluoropyridin-2-yl)-3-hydroxy-3-(methoxymethyl)-13-methylhexadecahydro-1H-cyclopenta[a]phenanthrene-17-carboxamide] | < 100 |
| CCOC[C@@]1(O)CC[C@H]2[C@H](CC[C@@H]3[C@@H]2CC[C@]2(C)[C@@H](C(=O)Nc4ccc(C#N)nn4)CC[C@@H]32)C1 [Example 29] | < 100 |
| CCOC[C@@]1(O)CC[C@H]2[C@H](CC[C@@H]3[C@@H]2CC[C@]2(C)[C@@H](C(=O)Nc4ncc(C#N)cc4C)CC[C@@H]32)C1 [Example 23] | 100 to 1000 |
| CCOC[C@@]1(O)CC[C@H]2[C@H](CC[C@@H]3[C@@H]2CC[C@]2(C)[C@@H](C(=O)Nc4ccnc(C)n4)CC[C@@H]32)C1 [Example 63] | < 100 |
| CCOC[C@@]1(O)CC[C@H]2[C@H](CC[C@@H]3[C@@H]2CC[C@]2(C)[C@@H](C(=O)Nc4ncccc4C(F)(F)F)CC[C@@H]32)C1 [Example 3, (3R,5R,8R,9R,10S,13S,14S,17S)-3-(ethoxymethyl)-3-hydroxy-13-methyl-N-(3-(trifluoromethyl)pyridin-2-yl)hexadecahydro-1H-cyclopenta[a]phenanthrene-17-carboxamide] | 100 to 1000 |
| CCC[C@@]1(O)CC[C@@]2(C)[C@H](CC[C@@H]3[C@@H]2CC[C@]2(C)[C@@H](C(=O)Nc4ccc(C#N)cn4)CC[C@@H]32)C1 [Example 68, (3R,5R,8R,9S,10S,13S,14S,17S)-N-(5-cyanopyridin-2-yl)-3-hydroxy-10, 13-dimethyl-3-propylhexadecahydro-1H-cyclopenta[a]phenanthrene-17-carboxamide] | < 100 |
| Cc1nc2ccccn2c1NC(=O)[C@H]1CC[C@H]2[C@@H]3CC[C@@H]4C[C@](C)(O)CC[C@@H]4[C@H]3CC[C@]12C [Example 6, (3R,5R,8R,9R,10S,13S,14S,17S)-3-hydroxy-3,13-dimethyl-N-(2-methylimidazo[1,2-a]pyridin-3-yl)hexadecahydro-1H-cyclopenta[a]phenanthrene-17-carboxamide] | 100 to 1000 |
| CCOC[C@@]1(O)CC[C@H]2[C@H](CC[C@@H]3[C@@H]2CC[C@]2(C)[C@@H](C(=O)Nc4ccc(N5CCCC5=O)nc4C)CC[C@@H]32)C1 [Example 65] | < 100 |
| CCOC[C@@]1(O)CC[C@H]2[C@H](CC[C@@H]3[C@@H]2CC[C@]2(C)[C@@H](C(=O)Nc4cncc(C#N)n4)CC[C@@H]32)C1 [Example 58] | < 100 |
| COC[C@@]1(O)CC[C@H]2[C@H](CC[C@@H]3[C@@H]2CC[C@]2(C)[C@@H](C(=O)Nc4ccc(C#N)nc4Cl)CC[C@@H]32)C1 [Example 42] | < 100 |
| COC[C@@]1(O)CC[C@H]2[C@H](CC[C@@H]3[C@@H]2CC[C@]2(C)[C@@H](C(=O)Nc4ccc(C(F)(F)F)nc4C)CC[C@@H]32)C1 [Example 46] | < 100 |
| CC[C@@]1(O)CC[C@H]2[C@H](CC[C@@H]3[C@@H]2CC[C@]2(C)[C@@H](C(=O)Nc4nc(C)ccc4Cl)CC[C@@H]32)C1 [Example 16, (3R,5R,8R,9R,10S,13S,14S,17S)-N-(3-chloro-6-methylpyridin-2-yl)-3-ethyl-3-hydroxy-13-methylhexadecahydro-1H-cyclopenta[a]phenanthrene-17-carboxamide] | 100 to 1000 |
